Assay results: patent US20090326014A1, “Use of 5-ht7 receptor agonists for the treatment of pain” (Laboratorios Del Dr. Esteve, S.A., priority 2006, published 2009)

Assays:
[1] = molecular target: 5-HT7 receptors (Homo sapiens, UniProt P34969); conditions: Mahe et al., 2004; Romero et al., 2006; cited from earlier work
[2] = system: mechanical allodynia induced by partial sciatic nerve ligation; experiment: Partial sciatic nerve ligation, von Frey test (mechanical allodynia); format: in vivo, mice
Source text: Mechanical allodynia was quantified by measuring the tactile threshold for hind paw withdrawal following von Frey filament stimulation. […] The filament exerted an increasing upward pressure on the plantar surface. The pressure increased linearly with time (0.1 g/s; from 0 to 5 g in 50 s) until the mouse withdrew its paw. […] A cut-off threshold of 5 g (50 s) was imposed.
The filament of 0.4 g was first used. […] This up-down procedure was stopped four measures after the first change in animal responding and the threshold of response was calculated. Clear paw withdrawal, shaking was considered as a nociceptive-like response.

[3] = molecular target: T1, h5-HT1F (Homo sapiens, UniProt P30939); experiment: Radioligand binding assay, h5-HT1F; conditions: read-out: Affinity [ki (nM)]
T1 sequence (P30939 1-366): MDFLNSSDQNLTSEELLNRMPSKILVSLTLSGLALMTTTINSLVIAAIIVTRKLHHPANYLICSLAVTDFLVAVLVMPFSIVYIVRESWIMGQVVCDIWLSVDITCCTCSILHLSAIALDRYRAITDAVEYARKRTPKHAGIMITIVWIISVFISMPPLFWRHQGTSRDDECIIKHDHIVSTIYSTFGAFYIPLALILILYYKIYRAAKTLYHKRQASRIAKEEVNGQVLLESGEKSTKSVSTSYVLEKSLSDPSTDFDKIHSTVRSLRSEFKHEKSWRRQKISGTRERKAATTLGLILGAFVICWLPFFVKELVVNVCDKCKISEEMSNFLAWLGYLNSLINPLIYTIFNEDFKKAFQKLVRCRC

[4] = system: sciatic nerve-ligatured rats; experiment: Chronic constriction injury of the sciatic nerve (CCI-SN), Randall-Sellito test; conditions: antagonist i.p., 5a-MSD s.c.; sciatic nerve-ligated rats
Procedure: All compounds were prepared as aqueous solutions. […] When two compounds were co-administered, one was injected s.c. and the other i.p.
Briefly, the right common sciatic nerve was exposed at mid-tight level by blunt dissection through the biceps femoris muscle. Proximal to the trifurcation, ≈10 mm of nerve was freed from adhering tissue and four loose ligatures (5.0 chromic catgut) were tied around the sciatic nerve (≈1 mm apart). […] In sham-operated control rats, an identical dissection was performed on the right side allowing the sciatic nerve to be freed from surrounding tissue, but not ligatured. Finally, muscle and skin were closed in layers with silk thread.
Mechanical nociceptive thresholds, expressed as grams (g), were measured using the Randall-Sellito test (Ugo Basile analgesimeter; Bioseb, Chaville, France). An increasing pressure was applied to the nerve-injured hindpaw of unrestrained rats until paw withdrawal (PW) and then a squeak (i.e. the vocalization threshold when the paw was held under pressure) were obtained. As PW is a spinally coordinated reflex whereas vocalization is a supra-spinal integrated response (Kayser and Christensen, 2000), this test allowed assessment of the respective contribution of spinal versus supra-spinal mechanisms.

[5] = molecular target: h5-HT2B (Homo sapiens, UniProt P41595); experiment: Radioligand binding assay, h5-HT2B; conditions: h5-HT2B; read-out: Affinity [ki (nM)]
[6] = molecular target: h5-HT2A (Homo sapiens, UniProt P28223); experiment: Radioligand binding assay, h5-HT2A; conditions: read-out: Affinity [ki (nM)]
[7] = molecular target: h5-HT6 (Homo sapiens, UniProt P50406); experiment: Radioligand binding assay, h5-HT6; conditions: h5-HT6; read-out: Affinity [ki (nM)]
[8] = molecular target: T2, h5-HT1A (Homo sapiens, UniProt P08908); experiment: Radioligand binding assay, h5-HT1A; conditions: h5-HT1A; read-out: Affinity [ki (nM)]
T2 sequence (P08908 1-422): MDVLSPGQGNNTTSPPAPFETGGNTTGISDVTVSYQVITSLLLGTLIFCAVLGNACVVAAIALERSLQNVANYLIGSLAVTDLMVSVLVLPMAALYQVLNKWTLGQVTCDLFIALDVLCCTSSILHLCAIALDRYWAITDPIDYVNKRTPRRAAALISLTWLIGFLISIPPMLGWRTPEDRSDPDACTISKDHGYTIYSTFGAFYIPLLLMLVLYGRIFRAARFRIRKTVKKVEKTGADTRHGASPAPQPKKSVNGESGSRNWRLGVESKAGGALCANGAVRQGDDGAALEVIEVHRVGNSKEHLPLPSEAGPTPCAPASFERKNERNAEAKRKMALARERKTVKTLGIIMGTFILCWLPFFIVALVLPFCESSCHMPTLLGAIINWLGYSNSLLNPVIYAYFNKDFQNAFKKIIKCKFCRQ

[9] = system: capsaicin-induced mechanical allodynia; experiment: Capsaicin test, antiallodynic protocol (1 μg capsaicin, 1 g von Frey filament); conditions: for effect on capsaicin-induced mechanical allodynia: 1 g filament
Procedure: Animals were housed in groups of five, provided with food and water ad libitum and kept in controlled laboratory conditions with the temperature maintained at 21±1° C. and light in 12 h cycles (on at 07:00 h and off at 19:00 h). Experiments were carried out in a soundproof and air-regulated experimental room. The number of mice per group in each individual experiment was 16.
Capsaicin (8-methyl-N-vanillyl 6-nonamide) was dissolved in 1% DMSO (vehicle). […] Doses were calculated based on the molecular weight of the free base. All the compounds and vehicles (1% DMSO or physiological saline) were administered in a volume of 5 ml/kg through the subcutaneous (s.c.) route. When two compounds were co-administered, they were injected s.c. in opposite flanks of the mice.
Subplantar capsaicin injection initially evokes a nocifensive behavior that is characterized by lifting and guarding the injected paw and typically lasts up to 5 min following injection. […] In this study, sensitization by subplantar capsaicin injection was used to assess the effect of several 5-HT7 ligands on mechanical allodynia.
Drug treatments with 5-HT7 ligands were done 30 min before capsaicin injection and withdrawal latencies to a mechanical stimulus were determined 15 min after capsaicin injection (FIG. 1).
Mechanical allodynia was quantified by measuring the hind paw withdrawal response latency to von Frey filament stimulation. Mice were placed into compartment enclosures in a test chamber with a framed metal mesh floor and allowed to acclimate to their environment for 120 min before testing. […] The mechanical stimulus was applied to the plantar surface of the right, capsaicin-injected hind paw from below the mesh floor by using an automated testing device (dynamic plantar aesthesiometer; Ugo Basile, Italy) that lifts a straight filament (0.5 mm diameter). The filament exerted a fixed upward pressure (1 g or 0.25 g) on the plantar surface. When the animal withdrew its hind paw, the mechanical stimulus automatically stopped and the latency time was recorded. Latency was defined as the time from the onset of exposure to the filament to the cessation of the pressure when the sensor detected the withdrawal of the paw. A cut-off latency of 60 sec was imposed. Paw withdrawal latencies were measured in triplicate for each animal.
This approach enabled us to evaluate the possible antiallodynic effect of 5-HT7 ligands.
Data are presented as mean paw withdrawal latency responses in sec±S.E.M. Capsaicin-injected hind paw withdrawal responses to mechanical stimulation of treated mice were compared with those of untreated (vehicle-treated) mice. Statistical analysis to test intergroup comparisons was made using an initial one-way analysis of variance followed by the Newman-Keuls multiple comparison test. The level of significance was set at p<0.05.

[10] = molecular target: h5-HT1D (Homo sapiens, UniProt P28221); experiment: Radioligand binding assay, h5-HT1D; conditions: read-out: Affinity [ki (nM)]
[11] = molecular target: h5-HT7 (Homo sapiens, UniProt P34969); conditions: read-out: Affinity [ki (nM)]
[12] = molecular target: h5-HT1E (Homo sapiens, UniProt P28566); experiment: Radioligand binding assay, h5-HT1E; conditions: read-out: Affinity [ki (nM)]
[13] = system: capsaicin-induced mechanical allodynia; experiment: Capsaicin test, proallodynic protocol (4 ng capsaicin, 0.25 g von Frey filament); format: in vivo, mice; conditions: 0.25 g pressure
Procedure: Alternatively, in some experiments, only 4 ng (instead of 1 μg) of capsaicin were injected into the paw and the pressure exerted by the filament was reduced to 0.25 g (instead of 1 g). […] This approach was used to test the possibility that treatments could exert a proallodynic effect. The FIG. 1 summarizes the two different experimental approaches carried out in this study.

[14] = molecular target: h5-HT1B (Homo sapiens, UniProt P28222); experiment: Radioligand binding assay, h5-HT1B; conditions: read-out: Affinity [ki (nM)]
[15] = molecular target: h5-HT2C (Homo sapiens, UniProt P28335); experiment: Radioligand binding assay, h5-HT2C; conditions: h5-HT2C; read-out: Affinity [ki (nM)]
[16] = system: thermal hyperalgesia induced by partial sciatic nerve ligation; experiment: Partial sciatic nerve ligation, plantar test (thermal hyperalgesia)
Procedure: Animals were housed in groups of five, provided with food and water ad libitum and kept in controlled laboratory conditions with the temperature maintained at 21±1° C. and light in 12 h cycles (on at 07:00 h and off at 19:00 h). Experiments were carried out in a soundproof and air-regulated experimental room.
The rest of compounds were prepared as aqueous solutions. Doses were calculated based on the molecular weight of the free base. All the compounds and vehicles (1% DMSO or physiological saline) were administered in a volume of 5 ml/kg through the subcutaneous (s.c.) route. When two compounds were co-administered, they were injected s.c. in opposite flanks of the mice.
This model consists of partial injury to the sciatic nerve at mid-thigh level. All surgical procedures for nerve injury were performed under isoflurane (IsoFlo®, Abbott-Laboratorios Dr. Esteve, S. A., Barcelona, Spain) anesthesia (induction: 3%; surgery: 2%). Briefly, mice were anaesthetized and the common sciatic nerve was exposed at the level of the mid-thigh of the right hind paw. Partial nerve injury was produced at about 1 cm proximal to the nerve trifurcation by tying a tight ligature around approximately 33 to 50% the diameter of the sciatic nerve using 9-0 non-absorbable virgin silk suture (Alcon surgical, Texas, USA). Ligature enclosed the outer ⅓-½ sciatic nerve whereas the rest of the nerve (inner ⅔-½) was leaved “uninjured”. The muscle was then stitched with 6-0 silk suture and the skin incision was closed with wound clips. Control, sham-operated mice underwent the same surgical procedure and the sciatic nerve was exposed, but not ligated. After surgery, animals were allowed to recover for 5 days prior to initiation of nociceptive behavioral tests (see experimental protocol below).
The effectiveness of acute treatments with 5-HT7 ligands compared to vehicle on the expression of neuropathic pain was investigated based on the following experimental protocol. […] After the habituation period, pre-injury baseline responses in each test were established during 2 consecutive days. One day after baseline measurements, nerve injury or sham operation was induced as previously described. Mice were then tested in either the von Frey or the plantar test on day 5 after the surgical procedure to monitor post-injury responses. Post-injury baseline responses of mice treated with vehicle were obtained on day 10 (basal pre-treatment). On days 11-13 mice received treatment with three different doses of 5-HT7 ligands following a Latin square design. Finally, on day 14 after surgery, baseline responses in vehicle-treated mice (basal post-treatment) were evaluated as an internal control to ensure that mechanical allodynia and thermal hyperalgesia were not influenced by previous treatments in the Latin square design.

Chain of h5-HT2C (P28335 33-458): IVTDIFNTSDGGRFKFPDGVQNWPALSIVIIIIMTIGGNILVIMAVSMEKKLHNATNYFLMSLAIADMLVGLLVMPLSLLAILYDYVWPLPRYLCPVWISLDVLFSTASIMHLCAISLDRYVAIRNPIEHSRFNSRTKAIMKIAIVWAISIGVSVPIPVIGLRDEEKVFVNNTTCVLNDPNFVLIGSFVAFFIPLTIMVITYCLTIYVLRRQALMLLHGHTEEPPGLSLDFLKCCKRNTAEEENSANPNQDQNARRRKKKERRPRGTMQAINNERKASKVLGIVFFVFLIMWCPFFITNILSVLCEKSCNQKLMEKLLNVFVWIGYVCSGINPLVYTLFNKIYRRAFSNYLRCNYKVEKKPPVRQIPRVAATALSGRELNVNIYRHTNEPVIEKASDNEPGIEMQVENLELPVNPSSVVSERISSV
Chain of h5-HT7 (P34969 whole entry): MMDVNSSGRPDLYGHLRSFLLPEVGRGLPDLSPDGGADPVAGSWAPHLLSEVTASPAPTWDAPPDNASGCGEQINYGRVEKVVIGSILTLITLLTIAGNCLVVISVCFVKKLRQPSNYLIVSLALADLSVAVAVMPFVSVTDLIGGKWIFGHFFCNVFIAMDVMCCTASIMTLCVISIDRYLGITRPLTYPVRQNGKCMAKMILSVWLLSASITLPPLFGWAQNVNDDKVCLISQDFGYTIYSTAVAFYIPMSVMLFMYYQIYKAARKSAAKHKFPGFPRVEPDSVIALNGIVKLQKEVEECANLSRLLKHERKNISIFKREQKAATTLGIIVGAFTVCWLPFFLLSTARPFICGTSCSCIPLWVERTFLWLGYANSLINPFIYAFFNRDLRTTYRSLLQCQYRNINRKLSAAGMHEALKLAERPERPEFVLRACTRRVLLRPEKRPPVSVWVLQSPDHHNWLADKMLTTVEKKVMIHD
Chain of 5-HT7 receptors (P34969 whole entry): as above
Chain of h5-HT2A (P28223 whole entry): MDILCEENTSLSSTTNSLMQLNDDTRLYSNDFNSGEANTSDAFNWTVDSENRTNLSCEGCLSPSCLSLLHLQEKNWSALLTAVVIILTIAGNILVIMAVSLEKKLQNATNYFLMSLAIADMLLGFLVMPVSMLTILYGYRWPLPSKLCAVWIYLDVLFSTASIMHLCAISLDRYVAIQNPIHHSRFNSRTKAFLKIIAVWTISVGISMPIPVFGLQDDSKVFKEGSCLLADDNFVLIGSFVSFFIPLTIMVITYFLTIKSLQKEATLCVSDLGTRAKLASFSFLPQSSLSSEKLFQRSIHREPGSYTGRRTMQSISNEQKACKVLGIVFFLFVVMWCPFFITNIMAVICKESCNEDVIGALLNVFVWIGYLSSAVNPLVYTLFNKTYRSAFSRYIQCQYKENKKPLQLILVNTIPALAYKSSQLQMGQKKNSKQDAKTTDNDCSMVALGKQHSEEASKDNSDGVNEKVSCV
Chain of h5-HT1B (P28222 whole entry): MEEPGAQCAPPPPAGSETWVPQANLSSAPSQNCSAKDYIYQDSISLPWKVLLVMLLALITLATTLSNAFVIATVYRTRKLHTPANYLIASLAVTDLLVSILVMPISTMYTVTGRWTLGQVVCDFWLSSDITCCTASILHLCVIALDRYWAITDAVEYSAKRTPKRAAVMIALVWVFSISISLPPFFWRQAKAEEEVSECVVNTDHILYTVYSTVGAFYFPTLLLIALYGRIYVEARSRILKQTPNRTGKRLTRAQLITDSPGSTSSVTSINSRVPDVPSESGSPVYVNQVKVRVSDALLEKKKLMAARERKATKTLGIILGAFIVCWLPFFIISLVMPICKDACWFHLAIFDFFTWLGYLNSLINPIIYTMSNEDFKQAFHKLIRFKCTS
Chain of h5-HT2B (P41595 whole entry): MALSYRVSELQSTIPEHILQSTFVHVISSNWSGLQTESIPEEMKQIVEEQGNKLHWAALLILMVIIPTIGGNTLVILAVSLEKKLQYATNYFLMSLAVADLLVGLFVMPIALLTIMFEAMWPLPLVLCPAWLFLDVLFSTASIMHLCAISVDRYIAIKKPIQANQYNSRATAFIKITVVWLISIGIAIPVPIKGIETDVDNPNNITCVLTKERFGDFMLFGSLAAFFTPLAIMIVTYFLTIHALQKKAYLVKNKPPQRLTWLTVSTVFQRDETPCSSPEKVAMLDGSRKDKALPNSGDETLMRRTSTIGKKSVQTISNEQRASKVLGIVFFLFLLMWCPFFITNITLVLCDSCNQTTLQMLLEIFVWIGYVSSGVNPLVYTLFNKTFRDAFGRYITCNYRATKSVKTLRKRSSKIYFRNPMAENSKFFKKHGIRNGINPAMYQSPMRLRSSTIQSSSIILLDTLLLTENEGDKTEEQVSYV
Chain of h5-HT6 (P50406 whole entry): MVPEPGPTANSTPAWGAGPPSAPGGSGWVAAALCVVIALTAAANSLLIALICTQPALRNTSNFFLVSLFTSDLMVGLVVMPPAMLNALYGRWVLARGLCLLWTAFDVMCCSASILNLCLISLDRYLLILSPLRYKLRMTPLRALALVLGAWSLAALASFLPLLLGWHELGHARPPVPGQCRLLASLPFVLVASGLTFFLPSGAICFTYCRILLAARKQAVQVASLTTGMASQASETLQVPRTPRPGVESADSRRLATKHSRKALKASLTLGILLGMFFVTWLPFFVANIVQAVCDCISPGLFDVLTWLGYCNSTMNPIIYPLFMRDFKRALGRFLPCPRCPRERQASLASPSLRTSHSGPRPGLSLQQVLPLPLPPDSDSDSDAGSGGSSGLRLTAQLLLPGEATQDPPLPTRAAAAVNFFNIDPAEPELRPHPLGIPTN
Chain of h5-HT1D (P28221 whole entry): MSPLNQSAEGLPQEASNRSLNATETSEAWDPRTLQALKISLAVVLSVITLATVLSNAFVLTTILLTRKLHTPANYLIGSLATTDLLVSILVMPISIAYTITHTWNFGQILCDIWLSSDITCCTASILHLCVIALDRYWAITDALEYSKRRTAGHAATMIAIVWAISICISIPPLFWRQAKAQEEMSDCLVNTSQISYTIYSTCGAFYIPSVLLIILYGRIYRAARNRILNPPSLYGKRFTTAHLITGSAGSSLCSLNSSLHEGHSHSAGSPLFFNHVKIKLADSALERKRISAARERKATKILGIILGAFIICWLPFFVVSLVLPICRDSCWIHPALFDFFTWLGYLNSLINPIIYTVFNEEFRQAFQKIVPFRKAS
Chain of h5-HT1E (P28566 whole entry): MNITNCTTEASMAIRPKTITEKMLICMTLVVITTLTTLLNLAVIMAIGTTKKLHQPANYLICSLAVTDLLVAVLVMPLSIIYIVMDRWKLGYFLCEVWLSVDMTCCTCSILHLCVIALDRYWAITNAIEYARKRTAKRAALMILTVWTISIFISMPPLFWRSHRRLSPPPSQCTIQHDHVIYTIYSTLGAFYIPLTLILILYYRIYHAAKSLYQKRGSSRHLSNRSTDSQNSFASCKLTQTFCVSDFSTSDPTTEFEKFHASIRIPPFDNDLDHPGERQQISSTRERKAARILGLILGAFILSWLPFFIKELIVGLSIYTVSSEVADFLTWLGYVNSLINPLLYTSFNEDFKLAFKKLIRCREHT

## Cc1cccc(S(=O)(=O)N(C)[C@H](C)CCN2CCC(C)CC2)c1 [SB-258719, (R)-3,N-Dimethyl-N-(1-methyl-3-(4-methylpiperidin-1-yl)propyl)benzene sulfonamide]
[1]
  functionality at 5-HT7 receptor as described: pure antagonist
[2]; 5 mg/Kg s.c., day 11, single dose design
  effect alone on mechanical allodynia, nerve-injured mice: had no antiallodynic effect
[2]; 10 mg/kg s.c., nerve-injured mice
  effect on mechanical threshold of the nerve-injured hind paw (proallodynic): significantly decreased the mechanical threshold
[2]; SB-258719 5 mg/Kg, AS-19 5 mg/kg, MSD-5a 10 mg/kg s.c., nerve-injured mice
  effect on the antiallodynic effect of AS-19 and MSD-5a when co-administered: able to reverse the antiallodynic effect
[2]; sham-operated, 10 mg/kg s.c.
  induction of mechanical allodynia in sham-operated mice: able to induce mechanical allodynia
[3]
  Ki: > 1000 nM
[4]
  effect on 5a-MSD-induced anti-hyperalgesia/anti-allodynia: Blockade
[5]
  Ki: > 1000 nM
[6]
  Ki: > 1000 nM
[7]
  Ki: > 1000 nM
[8]
  Ki: > 1000 nM
[9]; 20 mg/kg s.c.
  effect on capsaicin-induced mechanical allodynia: significantly increased paw withdrawal latencies
[9]; 2.5, 5 and 10 mg/kg s.c.
  effect on capsaicin-induced mechanical allodynia: unaffected
[9]; AS-19 at 5 and 10 mg/kg, WAY-100635 0.3 mg/kg or SB-258719 5 mg/kg s.c.
  effect on the antiallodynic effect of AS-19 when co-administered: abolished
[9]; SB-258719 5 mg/kg + MSD-5a 10 mg/kg s.c.
  effect on the antiallodynic effect of MSD-5a when co-administered: blocked this antiallodynic effect
[9]; SB-258719 2.5 and 5 mg/kg + AS-19 5 mg/kg s.c.
  effect on the antiallodynic effect of AS-19 when co-administered: dose-dependently inhibited
[10]
  Ki: > 1000 nM
[11]
  Ki: 31.6 nM
[12]
  Ki: > 1000 nM
[13]; 10 mg/Kg s.c.
  proallodynic effect (paw withdrawal latency): allodynia was evidenced
[13]; s.c.
  proallodynic effect, dose-response: dose-dependently promoted allodynia
[14]
  Ki: > 1000 nM
[15]
  Ki: > 1000 nM
[16]; 0.1-10 mg/kg s.c.
  effect on thermal hyperalgesia (paw withdrawal latency): did not exert any effects
[16]; SB-258719 5 mg/Kg + AS-19 5 mg/kg s.c., nerve-injured mice
  effect on the antihyperalgesic effect of AS-19 when co-administered: blocked significantely the antihyperalgesic effects
[16]; SB-258719 5 mg/Kg + MSD-5a 10 mg/kg s.c., nerve-injured mice
  effect on the antihyperalgesic effect of MSD-5a when co-administered: had a tendency to revert MSD-5a (10 mg/kg) without significancy
